Measurements: US20100137344A1, “INDUCTION OF ANALGESIA IN NEUROPATHIC PAIN” (University Court of the University of Edinburgh, priority 2006, published 2010)

How the values were obtained:
dorsal horn neurons = assay: Extracellular recordings of single spinal dorsal horn neurons in CCI animals (brush-evoked firing); type: in vivo, rat; settings: icilin 200 μM topical
Procedure: Peripheral: Recordings of saphenous (sensory) nerve were made in naïve animals (n=7) to assess the effects of topical icilin on primary afferents. In addition, recordings were carried out on animals which had undergone TRPM8 antisense or mis-sense treatment beginning 4-5 days previously. Rats were anaesthetised (with 0.6 ml 25% urethane/100 g, i.p.) and the saphenous nerve was exposed and dissected from its associated vein and artery. Further dissection under liquid paraffin enabled identification of afferent preparations comprising a small number of fibres. The conduction velocity of single identified afferent fibres was determined using bipolar electrodes and the peripheral stimulus technique^[43]. Following isolation of preparations, icilin (200 μM in water with 0.2% DMF), (−)-menthol (4 mM in 25% ethanol) resiniferatoxin (1 mM in ethanol) or vehicle alone were applied to the hindlimb receptive fields and neuronal responses recorded using the Chart programme (version 3.6). Central: Recordings of spinal dorsal horn neurons were made in CCI animals, as described previously^[39]. Following halothane induction, the jugular vein and trachea were canulated and intravenous anaesthetic delivered: α-chloralose ([…], Fisher) and urethane ([…], Sigma), with small supplementary doses of α-chloralose as required throughout the experiment. Core body temperature was maintained at 37-38° C. by means of a thermostatically controlled heated blanket. The animal was placed in a stereotaxic frame, and the thoracolumbar spinal column was supported using three pairs of swan-necked clamps. A laminectomy was performed at L2-L5, and agar (2% in saline at 37° C.) was delivered over exposed cord to increase mechanical stability. Above the recording region the agar and spinal cord dura were removed and liquid paraffin poured into the pool. Extracellular recordings were made from single multireceptive neurons in laminae I-IV through the centre barrel of a seven-barrelled glass microelectrode filled with 4M NaCl (tip-diameter […], DC resistance 5-8 MΩ). The receptive fields of hair-follicle innervated neurons on the distal hindlimb were identified by an innocuous brush stimulus^[39]. Icilin (200 μM in water with 0.2% DMF) was applied peripherally to the receptive field of individual recorded neurons, and the effect on neuronal response to a rotating brush was recorded and analysed using Spike2 programme (Version 3.2, CED). The Group III mGluR antagonist UBP 1112 (20 mM in water), pH 8.5, and control 1M NaCl, pH 8.5 were ionophoresed from the side barrels of the electrode using currents of between 20 nA and 80 nA (Neurophore BH2 ionophoresis system, Medical Systems, Great Neck, N.Y.) to measure effects on neuronal response to icilin.

[1] = system: SNL model of neuropathic pain; assay: SNL spinal nerve ligation model, Hargreaves' test, topical icilin; type: in vivo; settings: icilin 200 μM topical
Procedure: The SNL model of neuropathic pain was set up according to Kim and Chung 1992 (Pain 50: 355-363). The Hargreaves' test for thermal hyperalgesia was carried out as described above and icilin (200 μM) was applied topically to the ipsilateral (⋄) and contralateral (▪) paw. Values are shown as means±SEM. † Indicates statistically significant reversal of sensitisation ipsilateral to nerve injury (see FIG. 1). No significant drug effects were seen on reflex withdrawal responses of the contralateral limb.

naïve rats = assay: Topical application to paws of naïve rats, behavioural reflex testing (PWL, PWT); type: in vivo, rat; settings: Naïve
Procedure: Thermal sensitivity was assessed by measuring paw withdrawal latency (PWL, s) in response to a noxious thermal stimulus (Hargreaves' thermal stimulator, Linton Instrumentation, Diss, UK) directed to the hindpaw mid-plantar glabrous surface. Mechanical sensitivity was recorded as the paw withdrawal threshold (PWT, mN/mm^2) to calibrated von Frey filaments (Stoelting, Ill., US), as previously described^[39]. Sensitivity to noxious cold was assessed by placing animals in a waterbath with an aluminium floor containing 1 cm deep 4° C. water and counting the time the paw was held suspended over a 20 s period.
Icilin was applied at concentrations of 2.5-500 μM (in water with 0.2% DMF), by placing CCI or naïve rats unrestrained for 5 min in a 1 cm deep waterbath (sufficient to cover paws), which was thermostatically controlled to a temperature of 30° C., or by very lightly anaesthetising rats and immersing hindpaws in small tubes containing 5 ml icilin (500 μM-5 mM, with a vehicle of 45% dimethylformamide in 0.2% aqueous Tween 80) for 5 min, followed by sensory testing for 60-80 mins. The effects of (−)-menthol and its stereoisomers isomenthol (1S,2R,5R-menthol,) and (+)-menthol (1S,2R,5S(+)-menthol) (4-16 mM in 80% ethanol) were also assessed. Relevant vehicles were always assessed in similar experiments. As a contrast, the effect of cinnamaldehyde (1.5 mM in water) and the effect of cinnamaldehyde with additional icilin (80 μM in water with 0.2% DMF) were assessed in naïve animals. The effects of icilin (80 μM) were further assessed in CCI animals that had undergone antisense and mis-sense treatment for knockdown of TRPM8 or immediately following intrathecal injection of either LY 341495 or UBP 1112. […] The effects of brief paw immersion at different temperatures (10-22° C. for 5 min) on CCI rats were assessed by mechanical testing. The effects of intrathecal LY 341495 or UBP 1112 on the reversal of ipsilateral sensitisation in CCI following a 16° C. cool challenge for 5 min were measured. Reflex testing commenced 5 minutes following challenge, unless animals had been anaesthetised, in which case 15 minutes was allowed for recovery. Six replicate animals were tested in all pharmacological experiments.

[2] = icilin 1000 μM applied to paw, 15 mins
[3] = icilin 1000 μM applied to paw, 50 mins
[4] = icilin 2500 μM applied to paw, 15 mins
[5] = icilin 2500 μM applied to paw, 50 mins
[6] = icilin 5000 μM applied to paw, 15 mins
[7] = icilin 5000 μM applied to paw, 50 mins

O=C1NC(c2cccc([N+](=O)[O-])c2)=CCN1c1ccccc1O [icilin, 1-(2′-hydroxyphenyl)-4-(3″-nitrophenyl)-1,2,3,6-tetrahydropyrimidin-2-one]
brush-induced responses of contralateral neurons (dorsal horn neurons; contralateral, n=6): 111.9±8.9 % of control
brush-induced responses (dorsal horn neurons; ipsilateral to CCI, 8 neurons out of 12 affected): 37.4±5.5%
analgesia, thermal hyperalgesia (Hargreaves' test) [1]: causes analgesia
Mechanical PWT (naïve rats; [2]): 4830.6 ± 0.0 mN/mm^2
Thermal PWL (naïve rats; [2]): 15.1 ± 1.2 s
Mechanical PWT (naïve rats; [3]): 4830.6 ± 0.0 mN/mm^2
Thermal PWL (naïve rats; [3]): 14.8 ± 0.9 s
Mechanical PWT (naïve rats; [4]): 4830.6 ± 0.0 mN/mm^2
Thermal PWL (naïve rats; [4]): 14.9 ± 0.3 s
Mechanical PWT (naïve rats; [5]): 4830.6 ± 0.0 mN/mm^2
Thermal PWL (naïve rats; [5]): 13.2 ± 0.8 s
Mechanical PWT (naïve rats; [6]): 3828.6 ± 316.8 mN/mm^2
Thermal PWL (naïve rats; [6]): 15.3 ± 0.5 s
Mechanical PWT (naïve rats; [7]): 4830.6 ± 0.0 mN/mm^2
Thermal PWL (naïve rats; [7]): 13.1 ± 0.7 s
